Measured values as given in ChEMBL document CHEMBL1153327, “M3 muscarinic acetylcholine receptor antagonists: SAR and optimization of bi-aryl amines” (Bioorg Med Chem Lett, 2009).
Calls of active or inactive are those of the source. No cut-off for these calls is given here.

How the values were obtained:
[1] = target: T1, Muscarinic acetylcholine receptor M3 (Homo sapiens, UniProt P20309); experiment: Antagonist activity at human recombinant muscarinic M3 receptor expressed in CHO cells assessed as inhibition of acetylcholine-induced calcium mobilization by FLIPR assay; format: functional, cell-based
[2] = target: T1, Muscarinic acetylcholine receptor M3; experiment: Antagonist activity at human recombinant muscarinic M3 receptor expressed in CHO cells assessed as inhibition of acetylcholine-induced calcium mobilization by FLIPR based single concentration kinetic assay; format: functional, cell-based; details: read-out: pA2 (converted)
[3] = Permeability across artificial phospholipid membrane at pH 7.05 by HPLC; format: ADME; details: not told, read-out: permeability
[4] = target: T2, Muscarinic acetylcholine receptor M1 (Homo sapiens, UniProt P11229); experiment: Antagonist activity at human recombinant muscarinic M1 receptor expressed in CHO cells assessed as inhibition of acetylcholine-induced calcium mobilization by FLIPR assay; format: functional, cell-based; details: read-out: pA2 (converted)
T2 sequence (P11229 whole entry): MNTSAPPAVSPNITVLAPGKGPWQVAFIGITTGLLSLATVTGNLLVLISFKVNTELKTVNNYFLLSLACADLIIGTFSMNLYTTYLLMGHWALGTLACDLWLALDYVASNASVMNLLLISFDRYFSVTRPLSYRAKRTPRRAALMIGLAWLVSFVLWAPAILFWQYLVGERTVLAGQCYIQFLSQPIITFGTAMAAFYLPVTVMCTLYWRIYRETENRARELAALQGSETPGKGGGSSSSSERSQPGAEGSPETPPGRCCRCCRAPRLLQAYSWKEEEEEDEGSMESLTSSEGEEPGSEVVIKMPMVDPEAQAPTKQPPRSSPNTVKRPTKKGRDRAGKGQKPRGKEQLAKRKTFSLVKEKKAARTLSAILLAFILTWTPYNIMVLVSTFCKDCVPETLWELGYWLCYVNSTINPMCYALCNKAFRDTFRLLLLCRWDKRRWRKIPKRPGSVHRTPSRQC

[5] = tested on: Mus musculus; experiment: Inhibition of methacholine-induced bronchoconstriction in intranasally dosed BALB/c mouse assessed as enhanced pause pretreated before methacholine challenge; format: functional, organism-based

T1 sequence (P20309 whole entry): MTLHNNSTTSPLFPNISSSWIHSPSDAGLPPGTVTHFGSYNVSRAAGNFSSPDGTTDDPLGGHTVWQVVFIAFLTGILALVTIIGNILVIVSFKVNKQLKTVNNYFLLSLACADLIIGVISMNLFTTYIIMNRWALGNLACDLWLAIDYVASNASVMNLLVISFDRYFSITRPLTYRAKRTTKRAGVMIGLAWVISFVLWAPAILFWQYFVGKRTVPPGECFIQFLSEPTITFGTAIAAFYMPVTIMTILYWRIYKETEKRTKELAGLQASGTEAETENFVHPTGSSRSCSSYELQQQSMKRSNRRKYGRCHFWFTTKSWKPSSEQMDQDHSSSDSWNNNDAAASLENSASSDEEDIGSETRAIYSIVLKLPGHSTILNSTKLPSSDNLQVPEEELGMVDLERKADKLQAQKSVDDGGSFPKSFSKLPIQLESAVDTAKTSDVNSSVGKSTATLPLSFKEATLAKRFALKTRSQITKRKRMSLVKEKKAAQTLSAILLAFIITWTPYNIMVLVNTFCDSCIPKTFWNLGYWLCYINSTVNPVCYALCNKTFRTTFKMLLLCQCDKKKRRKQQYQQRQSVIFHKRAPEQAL

| IC50 [1] [nM] | Structure (SMILES) | further results |
| --- | --- | --- |
| 316 | O=C(NCc1cccc(-c2cccc(CN3CCCNCC3)c2)c1)c1ccc2c(c1)OCO2 |  |
| 10 | CCOc1cccc(C(=O)NCc2cccc(-c3cccc(CN4CCNCC4)c3)c2)c1 |  |
| 631 | O=C(NCc1cccc(-c2cccc(CN3CCNCC3)c2)c1)c1ccc(C(F)(F)F)cc1 |  |
|  | C[C@H]1CN(Cc2cccc(-c3cc(CNC(=O)c4cccc(CN5CC[N+](C)(Cc6ccccc6)CC5)c4)ccc3F)c2)CCN1 | Kb [2]: 0.0794 nM |
| 501 | O=C(NCc1cccc(-c2cccc(CN3CCNCC3)c2)c1)c1cccc(OC(F)(F)F)c1 |  |
| 501 | COc1ccc(C(=O)NCc2cccc(-c3cccc(CN4CCNCC4)c3)c2)cc1 |  |
| 50.1 | C[C@@H]1CN(Cc2cccc(-c3cccc(CNC(=O)c4ccc5c(c4)OCO5)c3)c2)CCN1 |  |
| 316 | N#Cc1ccccc1C(=O)NCc1cccc(-c2cccc(CN3CCNCC3)c2)c1 |  |
|  | C[C@H]1CN(Cc2cccc(-c3cc(CNC(=O)c4cccc(CN(C)CCCN(C)C)c4)ccc3F)c2)CCN1 | Kb [2]: 0.2 nM |
| > 10000 | Cc1c(CNC(=O)c2ccc3c(c2)OCO3)cccc1-c1cccc(CN2CCNCC2)c1 |  |
|  | C[C@H]1CN(Cc2cccc(-c3cc(CNC(=O)c4cccc(CN5CCOCC5)c4)ccc3F)c2)CCN1 | Kb [2]: 0.126 nM |
| 1260 | O=C(NCc1cccc(-c2cccc(CN3CCNCC3)c2)c1)c1cccc(Oc2ccccc2)c1 |  |
| 501 | COc1ccccc1C(=O)NCc1cccc(-c2cccc(CN3CCNCC3)c2)c1 |  |
| 10 | CC(=O)c1cccc(C(=O)NCc2cccc(-c3cccc(CN4CCNCC4)c3)c2)c1 |  |
|  | C[C@H]1CN(Cc2cccc(-c3cc(CNC(=O)c4cccc(CN(C)C)c4)ccc3F)c2)CCN1 | Kb [2]: 3.16 nM |
| 316 | O=C(NCc1cccc(-c2cccc(CN3CCNCC3)c2)c1)c1ccc(Cl)cc1 |  |
| > 10000 | O=C1CN(Cc2cccc(-c3cccc(CNC(=O)c4ccc5c(c4)OCO5)c3)c2)CCN1 |  |
| 5010 | O=C(NCc1cccc(-c2cccc(C(=O)N3CCNCC3)c2)c1)c1ccc2c(c1)OCO2 |  |
| 2510 | O=C(NCc1cccc(-c2cccc(CN3CCNCC3)c2)c1F)c1ccc2c(c1)OCO2 |  |
| 200 | CN(C)c1cccc(C(=O)NCc2cccc(-c3cccc(CN4CCNCC4)c3)c2)c1 |  |
|  | C[C@H]1CN(Cc2cccc(-c3cc(CNC(=O)c4cccc(CN5CCN(CCCO)CC5)c4)ccc3F)c2)CCN1 | Kb [2]: 0.0631 nM |
| 20 | CS(=O)(=O)c1cccc(C(=O)NCc2cccc(-c3cccc(CN4CCNCC4)c3)c2)c1 |  |
| 100 | O=C(NCc1cccc(-c2cccc(CN3CCNCC3)c2)c1)c1cccc(Cl)c1 |  |

| IC50 [1] [nM] | Structure (SMILES) | further results |
| --- | --- | --- |
| 631 | CN1CCCN(Cc2cccc(-c3cccc(CNC(=O)c4ccc5c(c4)OCO5)c3)c2)CC1 |  |
| 251 | O=C(NCc1cc(-c2cccc(CN3CCNCC3)c2)ccc1F)c1ccc2c(c1)OCO2 |  |
| 200 | CC(=O)Nc1cccc(C(=O)NCc2cccc(-c3cccc(CN4CCNCC4)c3)c2)c1 |  |
| 200 | O=C(NCc1cccc(-c2ccc(F)c(CN3CCNCC3)c2)c1)c1ccc2c(c1)OCO2 |  |
| 1580 | CCN1CCN(Cc2cccc(-c3cccc(CNC(=O)c4ccc5c(c4)OCO5)c3)c2)CC1 |  |
| 20 | COC(=O)c1cccc(C(=O)NCc2cccc(-c3cccc(CN4CCNCC4)c3)c2)c1 |  |
| 10 | CC1CN(Cc2cccc(-c3cccc(CNC(=O)c4ccc5c(c4)OCO5)c3)c2)CCN1 (stereo unspecified) |  |
| 2000 | Nc1cccc(C(=O)NCc2cccc(-c3cccc(CN4CCNCC4)c3)c2)c1 |  |
|  | C[C@H]1CN(Cc2cccc(-c3cc(CNC(=O)c4cccc(CN5CC[N+]6(CCCCC6)CC5)c4)ccc3F)c2)CCN1 | Kb [2]: 0.126 nM |
| 79.4 | O=C(NCc1cccc(-c2cccc(CN3C[C@@H]4C[C@H]3CN4)c2)c1)c1ccc2c(c1)OCO2 |  |
| 79.4 | N#Cc1ccc(C(=O)NCc2cccc(-c3cccc(CN4CCNCC4)c3)c2)cc1 |  |
|  | C[C@H]1CN(Cc2cccc(-c3cc(CNC(=O)c4cccc(CN5CC[N+](C)(C)CC5)c4)ccc3F)c2)CCN1.[I-] | Kb [2]: 0.158 nM; Papp [3]: < 0.3 ×10⁻⁶ cm/s |
| > 10000 | C[N+]1(Cc2cccc(-c3cccc(CNC(=O)c4ccc5c(c4)OCO5)c3)c2)CCNCC1 |  |
| 6310 | O=C(NCc1cccc(-c2cccc(CN3CCCCC3)c2)c1)c1ccc2c(c1)OCO2 |  |
| 6.31 | O=C(NCc1ccc(F)c(-c2cccc(CN3CCNCC3)c2)c1)c1ccc2c(c1)OCO2 |  |
| 251 | Cc1cccc(C(=O)NCc2cccc(-c3cccc(CN4CCNCC4)c3)c2)c1 |  |
|  | C[C@H]1CN(Cc2cccc(-c3cc(CNC(=O)c4cccc(CN5CCCN(C)CC5)c4)ccc3F)c2)CCN1 | Kb [2]: 0.251 nM |
| 251 | O=S(=O)(NCc1cccc(-c2cccc(CN3CCNCC3)c2)c1)c1ccc2c(c1)OCO2 |  |
| 3980 | CC(=O)N1CCN(Cc2cccc(-c3cccc(CNC(=O)c4ccc5c(c4)OCO5)c3)c2)CC1 |  |
| 3160 | Cc1ccc(-c2cccc(CN3CCNCC3)c2)cc1CNC(=O)c1ccc2c(c1)OCO2 |  |
| 7940 | O=C(NCc1cccc(-c2cccc(CN3CCNCC3)c2)c1)Nc1ccc2c(c1)OCO2 |  |
| 3.98 | CN1CCN(Cc2cccc(C(=O)NCc3cccc(-c4cccc(CN5CCNCC5)c4)c3)c2)CC1 |  |
| 5.01 | C[C@H]1CN(Cc2cccc(-c3cccc(CNC(=O)c4ccc5c(c4)OCO5)c3)c2)CCN1 |  |

| IC50 [1] [nM] | Structure (SMILES) | further results |
| --- | --- | --- |
| 316 | COc1ccc(-c2cccc(CNC(=O)c3ccc4c(c3)OCO4)c2)cc1CN1CCNCC1 |  |
|  | CCC[N+]1(C)CCN(Cc2cccc(C(=O)NCc3ccc(F)c(-c4cccc(CN5CCN[C@@H](C)C5)c4)c3)c2)CC1 | Kb [2]: 0.1 nM |
| 50.1 | O=C(NCc1cccc(-c2cccc(CN3CCNCC3)c2)c1)c1cccc(C(F)(F)F)c1 |  |
| 31.6 | COc1ccc(CNC(=O)c2ccc3c(c2)OCO3)cc1-c1cccc(CN2CCNCC2)c1 |  |
| 794 | O=C(NCc1cccc(-c2cccc(CN3CCNCC3)c2)c1)c1cccc(F)c1 |  |
| 3980 | O=C(NCc1cccc(-c2cccc(CN3CCNCC3)c2)c1)c1ccccc1C(F)(F)F |  |
| 501 | CN1CCN(Cc2cccc(-c3cccc(CNC(=O)c4ccc5c(c4)OCO5)c3)c2)CC1 |  |
| 6310 | O=C(Nc1cccc(-c2cccc(CN3CCNCC3)c2)c1)c1ccc2c(c1)OCO2 |  |
| 501 | C[C@H]1CN(Cc2ccc(-c3cccc(CNC(=O)c4ccc5c(c4)OCO5)c3)s2)CCN1 |  |
|  | C[C@H]1CN(Cc2cccc(-c3cc(CNC(=O)c4cccc(CN5CCN(C=O)CC5)c4)ccc3F)c2)CCN1 | Kb [2]: 0.0794 nM |
|  | C[C@H]1CN(Cc2cccc(-c3cc(CNC(=O)c4cccc(C[N+]5(C)CCNCC5)c4)ccc3F)c2)CCN1 | Kb [2]: 3.16 nM |
| 50.1 | N#Cc1cccc(C(=O)NCc2cccc(-c3cccc(CN4CCNCC4)c3)c2)c1 |  |
| 2000 | O=C(NCc1cccc(-c2cccc(CN3CCNCC3)c2)c1)c1cccc(O)c1 |  |
| 39.8 | C[C@H]1CN(Cc2cccc(-c3cccc(CNC(=O)c4ccc5c(c4)OCO5)c3)n2)CCN1 |  |
|  | C[C@H]1CN(Cc2cccc(-c3cc(CNC(=O)c4cccc(CC5CCNCC5)c4)ccc3F)c2)CCN1 | Kb [4]: 0.2 nM; inhibition [5]: Active |
| 79.4 | COc1cccc(C(=O)NCc2cccc(-c3cccc(CN4CCNCC4)c3)c2)c1 |  |
| > 10000 | O=C(NCc1cccc(-c2cccc(CN3CCOCC3)c2)c1)c1ccc2c(c1)OCO2 |  |
|  | C[C@H]1CN(Cc2cccc(-c3cc(CNC(=O)c4cccc(CN5CCN(C)CC5)c4)ccc3F)c2)CCN1 | Kb [2]: 0.0316 nM |
| 1000 | O=C(NCc1cccc(-c2cccc(CN3CCNCC3)c2)c1)c1ccccc1Cl |  |
| 2510 | C[N+]1(C)CCN(Cc2cccc(-c3cccc(CNC(=O)c4ccc5c(c4)OCO5)c3)c2)CC1 |  |
|  | C[C@H]1CN(Cc2cccc(-c3cc(CNC(=O)c4cccc(CN5CCCCC5)c4)ccc3F)c2)CCN1 | Kb [2]: 0.631 nM |
| 316 | CCc1cccc(C(=O)NCc2cccc(-c3cccc(CN4CCNCC4)c3)c2)c1 |  |
| 1260 | COc1ccc(CN2CCNCC2)cc1-c1cccc(CNC(=O)c2ccc3c(c2)OCO3)c1 |  |
